{"source": "paper PMC2568956", "about": "“The Antimicrobial Peptide Histatin-5 Causes a Spatially Restricted Disruption on the Candida albicans Surface, Allowing Rapid Entry of the Peptide into the Cytoplasm” (PLoS Pathogens, 2008)", "key": {"C. albicans": {"tested_on": "C. albicans", "parameters": "method as in 4 sources, one per row (each row's own in cited_ref): ref 3, 4 = [3]; PMID 2406266; 3 Raj PA Edgerton M Levine MJ 1990 Salivary histatin 5: dependence of sequence, chain length, and helical conformation for candidacidal activity. J Biol Chem 265 3898 3905 2406266 || [4]; PMID 1855975; doi:10.1128/iai.59.8.2549-2554.1991; 4 Xu T Levitz SM Diamond RD Oppenheim FG 1991 Anticandidal activity of major human salivary histatins. Infect Immun 59 2549 2554 1855975 10.1128/iai.59.8.2549-2554.1991 PMC258054 ||| ref 37 = [37]; PMID 8945538; doi:10.1128/iai.64.12.5000-5007.1996; 37 Tsai H Raj PA Bobek LA 1996 Candidacidal activity of recombinant human salivary histatin-5 and variants. Infect Immun 64 5000 5007 8945538 10.1128/iai.64.12.5000-5007.1996 PMC174480 ||| ref 10, 13, 49 = [10]; PMID 10066791; doi:10.1074/jbc.274.11.7286; 10 Helmerhorst EJ Breeuwer P van't Hoff W Walgreen-Weterings E Oomen LC 1999 The cellular target of histatin 5 on Candida albicans is the energized mitochondrion. J Biol Chem 274 7286 7291 10066791 10 || [13]; PMID 10471575; doi:10.1128/aac.43.9.2256; 13 Xu Y Ambudkar I Yamagishi H Swaim W Walsh TJ 1999 Histatin 3-mediated killing of Candida albicans : effect of extracellular salt concentration on binding and internalization. Antimicrob Agents Chem || [49]; PMID 11083804; doi:10.1128/iai.68.12.6848-6856.2000; 49 Koshlukova SE Araujo MW Baev D Edgerton M 2000 Released ATP is an extracellular cytotoxic mediator in salivary histatin 5-induced killing of Candida albicans . Infect Immun 68 6848 6856 11083804 10 ||| ref 65, 66 = [65]; PMID 11204768; doi:10.1023/a:1026572128004; 65 van't Hoff W Reijnders I Helmerhorst E Walgreen-Weterings E Simoons-Smit I 2000 Synergistic effects of low doses of histatin 5 and its analogues on amphotericin B anti-mycotic activity. Antonie Van || [66]; PMID 16291868; doi:10.1093/jac/dki402; 66 Tanida T Okamoto T Ueta E Yamamoto T Osaki T 2006 Antimicrobial peptides enhance the candidacidal activity of antifungal drugs by promoting the efflux of ATP from Candida cells. J Antimicrob Chemot", "details": "cited from earlier work"}, "[1]": {"details": "liposome model system; cited from earlier work", "description": "Histatins are a family of low-molecular weight histidine-rich cationic peptides that are found specifically in human salivary secretions. […] It kills C. albicans in vitro at physiological concentrations (15–30 µM),[4]. Structural studies of Hst-5 have shown that it takes on a random coil structure in aqueous solvents and adopts a largely α-helical conformation in non-aqueous solutions [5],[6]. Many antimicrobial cationic peptides form either α ..."}, "C. albicans cells [2]": {"tested_on": "C. albicans cells", "experiment": "Hst-5 localization studies by fluorescence microscopy", "format": "cell-based, Candida albicans", "description": "(§1) The intracellular localization of FITC-Hst-5 (5, 10, 20, and 50 µM) and FITC-m68 (5, 10, 20, 50, and 200 µM) was investigated either alone or in a double-labeling experiment using FM4-64 (Molecular Probes, Inc. Eugene, OR). Yeast cells in 50 µl (∼10^6 cells/ml) were incubated for 30 minutes at 30°C with 10 µM FITC-Hst-5 and 10 µM FM4-64; the cells were then washed twice with 10 mM NaN3 and 10 mM NaF in 20 mM PBS buffer, and analyzed immediately by wide-field fluorescence microscopy.\n(§2) Wide-field fluorescence images were obtained on either Zeiss Axioplan 2 or the inverted Zeiss Axio Observer.Z1 Microscope (Carl Zeiss MicroImaging, Inc. Thornwood, NY) fluorescent system, equipped with the AttoArc HBO 100 and the X-Cite series 120 mercury lamps, respectively. Images were taken using a 100× NA 1.4 objective. Both fluorescence microscopes were equipped with GFP, RFP, and DAPI filter sets."}, "S. cerevisiae [3]": {"tested_on": "S. cerevisiae", "details": "cited from earlier work"}, "C. glabrata [4]": {"tested_on": "C. glabrata", "details": "cited from earlier work"}, "[5]": {"tested_on": "C. albicans vps36 and snf7 mutant cells", "experiment": "Hst-5 localization in vps36 and snf7 mutant cells by fluorescence microscopy", "format": "cell-based, Candida albicans", "details": "10 µM FITC-Hst-5 and 10 µM FM4-64, 30 minutes, 30°C", "description": "as §1, §2"}, "C. glabrata [6]": {"tested_on": "C. glabrata", "experiment": "FITC-Hst-5 localization in C. glabrata by fluorescence microscopy", "format": "cell-based, Candida glabrata", "details": "50 µM FITC-Hst-5, 30 minutes, 30°C, fixed exposure time 9 ms", "description": "as §1, §2"}, "S. cerevisiae [7]": {"tested_on": "S. cerevisiae", "experiment": "FITC-Hst-5 localization in S. cerevisiae by fluorescence microscopy", "format": "cell-based, Saccharomyces cerevisiae", "details": "50 µM FITC-Hst-5, 30 minutes, 30°C, fixed exposure time 9 ms", "description": "as §1, §2"}, "C. albicans cells [8]": {"tested_on": "C. albicans cells", "format": "cell-based, Candida albicans", "details": "10 µM FITC-Hst-5, 30 minutes, 30°C, cell sorting, ~200 cells plated on YPD, overnight 30°C, triplicate cultures", "description": "C. albicans cells were incubated for 30 minutes with 10 µM of FITC-Hst-5 at 30°C. The cells were then washed twice with 20 mM PBS buffer and under went flow cytometric cell sorting using the DAKO Cytomation MoFlo Flow Cytometer (DAKO, Glostrup, Denmark). The results were analyzed on a PC using the software package Summit (version 4.0) provided by DAKO. The cells were sorted by gating the two peaks of the histogram representing vacuolar and cytoplasmic localization of Hst-5. Cellular localization of Hst-5 was confirmed with fluorescence microscopy. The sorted cells were then plated onto YPD plates and incubated overnight at 30°C (data as a mean±1SD of triplicate cultures)."}, "[9]": {"tested_on": "C. albicans wild-type cells", "experiment": "Hst-5 localization in cells treated with latrunculin A or cytochalasin A", "format": "cell-based, Candida albicans", "details": "cells pre-treated with 50 µM latrunculin A or 5 µM cytochalasin A for 60 minutes at room temperature, then 5 µM FITC-Hst-5, 30 minutes, 30°C", "description": "(§3) To depolarize F-actin, cells were treated with either 5 µM cytochalasin A or 50 µM latrunculin A (Sigma, St. Louis, MO) for 1 hour at room temperature. The control cells (wild-type and myo5) were treated with the equivalent volume of the DMSO solvent (0.5%). The cells were then exposed to 5 µM of FITC-Hst-5 for 30 minutes at 30°C. The cells were then washed twice with buffer containing NaN3 and NaF and analyzed by wide-field fluorescence microscopy and flow cytometry."}, "C. albicans myo5 cells": {"tested_on": "C. albicans myo5 cells", "experiment": "FITC-Hst-5 localization in myo5 mutant cells by flow cytometry", "format": "cell-based, Candida albicans", "details": "10 µM FITC-Hst-5 and 10 µM FM4-64, 10 minutes, 30°C", "description": "The intracellular localization of FITC-Hst-5 (5, 10, 20, and 50 µM) and FITC-m68 (5, 10, 20, 50, and 200 µM) was investigated either alone or in a double-labeling experiment using FM4-64 (Molecular Probes, Inc. Eugene, OR). […]\nas §3\n(§4) The distribution of FITC-labeled Hst-5 over the cell population was investigated by using a dual laser fluorescence-activated cell sorter (BD FACSCalibur System, Becton Dickinson, San Jose, CA). The results were analyzed with the software package CellQuest Pro (version 5.1.1) provided by Beckton Dickinson."}, "C. albicans cells [10]": {"tested_on": "C. albicans cells", "experiment": "Concentration-dependent localization of FITC-Hst-5 by flow cytometry (FACS analysis)", "format": "cell-based, Candida albicans", "details": "30°C, ~10^6 cells/ml; for Percent of population: M2 (Hst-5 localized to the cytoplasm): high intensity peak; for Percent of population: M1 (Hst-5 localized to the vacuole): low intensity peak", "description": "as §1, §4"}, "[11]": {"details": "50 and 200 µM FITC-m68, 30°C, 30 minutes"}}, "data": [{"molecule": "C[C@H](NC(=O)[C@H](Cc1cnc[nH]1)NC(=O)[C@H](CO)NC(=O)[C@@H](N)CC(=O)O)C(=O)N[C@@H](CCCCN)C(=O)N[C@@H](CCCNC(=N)N)C(=O)N[C@@H](Cc1cnc[nH]1)C(=O)N[C@@H](Cc1cnc[nH]1)C(=O)NCC(=O)N[C@@H](Cc1ccc(O)cc1)C(=O)N[C@@H](CCCCN)C(=O)N[C@@H](CCCNC(=N)N)C(=O)N[C@@H](CCCCN)C(=O)N[C@@H](Cc1ccccc1)C(=O)N[C@@H](Cc1cnc[nH]1)C(=O)N[C@@H](CCC(=O)O)C(=O)N[C@@H](CCCCN)C(=O)N[C@@H](Cc1cnc[nH]1)C(=O)N[C@@H](Cc1cnc[nH]1)C(=O)N[C@@H](CO)C(=O)N[C@@H](Cc1cnc[nH]1)C(=O)N[C@@H](CCCNC(=N)N)C(=O)NCC(=O)N[C@@H](Cc1ccc(O)cc1)C(=O)O", "note": "[Hst-5, histatin-5]", "values": [{"measurement": "killing of C. albicans in combination", "setting": "C. albicans; combined with amphotericin B", "value": "strong synergistic killing"}, {"measurement": "concentration that kills C. albicans in vitro (physiological concentrations)", "setting": "C. albicans; in vitro", "value": "15–30 µM"}, {"measurement": "lytic effect", "setting": "[1]", "value": "little lytic effect"}, {"measurement": "cellular localization", "setting": "C. albicans cells [2]; 5 µM FITC-Hst-5, 30 minutes, fluorescence microscopy", "value": "mostly vacuolar localization"}, {"measurement": "cellular localization", "setting": "C. albicans cells [2]; 20 µM FITC-Hst-5, pH 4.5, 30 minutes, 30°C", "value": "a preponderance of cells had Hst-5 localized within the cytoplasm"}, {"measurement": "cellular localization", "setting": "C. albicans cells [2]; 20 µM FITC-Hst-5, pH 9.0, 30 minutes, 30°C", "value": "no cytoplasmic localization was observed"}, {"measurement": "cellular localization", "setting": "C. albicans cells [2]; 50 µM FITC-Hst-5, 30 minutes, fluorescence microscopy", "value": "largely cytoplasmic localization with little vacuolar fluorescence"}, {"measurement": "resistance of the yeast to the peptide", "setting": "S. cerevisiae [3]", "value": "marked resistance"}, {"measurement": "resistance of the yeast to the peptide", "setting": "C. glabrata [4]", "value": "marked resistance"}, {"measurement": "cellular localization", "setting": "[5]", "value": "excluded from the lumen of vacuole-like membrane structures"}, {"measurement": "cellular localization", "setting": "C. glabrata [6]", "value": "predominantly localized to the vacuole"}, {"measurement": "cellular localization", "setting": "S. cerevisiae [7]", "value": "found bound to the cell surface"}, {"measurement": "colony formation of sorted cells with cytoplasmic Hst-5", "setting": "C. albicans cells [8]", "value": "none"}, {"measurement": "cellular localization", "setting": "[9]", "value": "observed in the cytoplasm in a majority of the cells"}]}, {"molecule": "DSHAKRHHGYKREFHEKHHSHGGY [FITC-m68, FITC-labeled Hst-5 m68]", "values": [{"measurement": "cytoplasmic localization", "setting": "C. albicans cells [2]; 5, 10 and 20 µM FITC-m68, 30°C, 30 minutes (data not shown)", "value": "not observed"}, {"measurement": "cellular localization", "setting": "C. albicans cells [2]; [11]", "value": "localized to the vacuole in the majority of cells"}, {"measurement": "cytoplasmic localization", "setting": "C. albicans cells [2]; [11]", "value": "only seen in a small portion of the cell population"}]}, {"molecule": "DSHAKRHHGYKREFHEKHHSHGGY [m68, variant of Hst-5 reported by Tsai et al.: lysine-13 replaced with glutamic acid and arginine 22 with glycine, reference compound]", "values": [{"measurement": "killing ability relative to Hst-5", "setting": "C. albicans", "value": "significant reduction"}]}, {"molecule": "DSHAKRHHGYKRKFHEKHHSHRGY [FITC-Hst-5, FITC-labeled Hst-5]", "values": [{"measurement": "population with cytoplasmic localization", "setting": "C. albicans myo5 cells", "value": 19.01, "unit": "%"}, {"measurement": "population with plasma membrane localization", "setting": "C. albicans myo5 cells", "value": 80.99, "unit": "%"}, {"measurement": "Percent of population: M2 (Hst-5 localized to the cytoplasm)", "setting": "C. albicans cells [10]; 5 µM FITC-Hst-5, 30 minutes", "value": 1.94, "unit": "%"}, {"measurement": "Percent of population: M1 (Hst-5 localized to the vacuole)", "setting": "C. albicans cells [10]; 5 µM FITC-Hst-5, 30 minutes", "value": 96.02, "unit": "%"}, {"measurement": "Percent of population: M2 (Hst-5 localized to the cytoplasm)", "setting": "C. albicans cells [10]; 10 µM FITC-Hst-5, 30 minutes", "value": 34.63, "unit": "%"}, {"measurement": "Percent of population: M1 (Hst-5 localized to the vacuole)", "setting": "C. albicans cells [10]; 10 µM FITC-Hst-5, 30 minutes", "value": 64.02, "unit": "%"}, {"measurement": "Percent of population: M2 (Hst-5 localized to the cytoplasm)", "setting": "C. albicans cells [10]; 20 µM FITC-Hst-5, 30 minutes", "value": 70.43, "unit": "%"}, {"measurement": "Percent of population: M1 (Hst-5 localized to the vacuole)", "setting": "C. albicans cells [10]; 20 µM FITC-Hst-5, 30 minutes", "value": 29.69, "unit": "%"}, {"measurement": "Percent of population: M2 (Hst-5 localized to the cytoplasm)", "setting": "C. albicans cells [10]; 50 µM FITC-Hst-5, 30 minutes", "value": 93.44, "unit": "%"}, {"measurement": "Percent of population: M1 (Hst-5 localized to the vacuole)", "setting": "C. albicans cells [10]; 50 µM FITC-Hst-5, 30 minutes", "value": 6.50, "unit": "%"}]}]}
